Test results published in patent publication US12344610B2, “APOL1 inhibitors and methods of use” (Maze Therapeutics, Inc., priority 2022, dated 2025).

Tests used:
[1] = tested on: HEK293 cells overexpressing APOL1 G2; test: APOL1 G2 HEK293 cell rescue assay (reversal of cell death caused by overexpression of APOL1); type: cell-based; settings: Homo sapiens, HEK293, HEK293 overexpressing APOL1 G2; geometric mean of at least 2 assay runs; † = single assay run
Outline: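 EC50 is the half-maximal effective concentration for reversing cell death driven by APOL1 G2 overexpression in HEK293 cells. Reported as geometric mean of at least 2 runs on separate days, each run averaging duplicate wells per plate; some values from a single run.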

APOL1 G2 = molecular target: T1, APOL1 G2 (Homo sapiens, UniProt O14791, DEL388-389); test: APOL1-mediated calcium transport (calcium influx) assay, HEK T-REx/GCaMP6f/APOL1 G2 K6.3 cells, FLIPR TETRA; type: cell-based; settings: prevention of calcium influx; geometric mean of at least 2 assay runs; † = average of a technical replicate from a single assay run
T1 construct: expressed in transfected cells; host or cells: HEK293 T-REx clonal line stably expressing GCaMP6f (HEK T-REx/GCaMP6f/APOL1 G2 K6.3), doxycycline induced
T1 sequence (O14791 with tags, fused parts or gaps DEL388-389): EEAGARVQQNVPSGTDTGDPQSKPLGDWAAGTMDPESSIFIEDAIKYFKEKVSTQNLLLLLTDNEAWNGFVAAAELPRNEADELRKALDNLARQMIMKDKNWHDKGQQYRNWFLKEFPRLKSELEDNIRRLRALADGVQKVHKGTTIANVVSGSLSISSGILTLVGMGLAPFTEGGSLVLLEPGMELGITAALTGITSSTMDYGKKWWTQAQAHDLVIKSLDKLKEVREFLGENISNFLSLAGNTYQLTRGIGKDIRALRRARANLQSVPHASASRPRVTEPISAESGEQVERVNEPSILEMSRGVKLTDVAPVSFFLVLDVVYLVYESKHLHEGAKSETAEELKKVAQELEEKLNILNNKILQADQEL
Outline: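 A HEK293 T-REx clone stably expressing GCaMP6f had APOL1 G2 induced with doxycycline (20 ng/mL solution added) for 6 h. Cells were then washed into Ca2+-free Tyrode's buffer (pH 7.4) and preincubated with compounds (duplicate 8-point) for 10 min at room temperature. Ca2+ injection to 5 mM final produced FLIPR GCaMP fluorescence, giving AC50 for influx inhibition (geometric mean, ≥2 runs).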

Row | Structure (SMILES) | EC50 [1] [nM] | AC50 (APOL1 G2) [nM]
1 | O=C1Nc2ccc(Cl)cc2C12CCN(CCOc1ccc(S(=O)(=O)[C@H]3C[C@@H](O)C3)cc1)CC2 [Compound 17, 5-chloro-1′-[2-(4-{[(cis)-3-hydroxycyclobutyl]sulfonyl}phenoxy)ethyl]-1,2-dihydrospiro[indole-3,4′-piperidin]-2-one] | 60 | 1100
2 | O=C1CCc2cc(OCCN3CCC4(CC3)C(=O)Nc3ccc(Cl)cc34)ccc2N1C1COC1 [Compound 99, 5-chloro-1′-(2-{[1-(oxetan-3-yl)-2-oxo-1,2,3,4-tetrahydroquinolin-6-yl]oxy}ethyl)-1,2-dihydrospiro[indole-3,4′-piperidin]-2-one] | 86.5 | 643
3 | CS(=O)(=O)c1ccc(OCCN2CCC3(CC2)C(=O)Nc2ccc(C#N)cc23)cc1C(F)F [Compound 100, 1′-{2-[3-(difluoromethyl)-4-methanesulfonylphenoxy]ethyl}-2-oxo-1,2-dihydrospiro[indole-3,4′-piperidine]-5-carbonitrile] | 46.5 | 503
4 | CS(=O)(=O)C1(c2ccc(OCCN3CCC4(CC3)C(=O)Nc3ccc(C#N)cc34)cc2)CC1 [Compound 101, 1′-{2-[4-(1-methanesulfonylcyclopropyl)phenoxy]ethyl}-2-oxo-1,2-dihydrospiro[indole-3,4′-piperidine]-5-carbonitrile] | 49.6 | 634
5 | CS(=O)(=O)C1(c2ccc(OCCN3CCC4(CC3)C(=O)Nc3ccc(Cl)cc34)cc2)CC1 [Compound 102, 5-chloro-1′-{2-[4-(1-methanesulfonylcyclopropyl)phenoxy]ethyl}-1,2-dihydrospiro[indole-3,4′-piperidin]-2-one] | 31.4 | 671
6 | CN1c2ccc(OCCN3CCC4(CC3)C(=O)Nc3ccc(Cl)cc34)cc2CCS1(=O)=O [Compound 103, 6-(2-{5-chloro-2-oxo-1,2-dihydrospiro[indole-3,4′-piperidin]-1′-yl}ethoxy)-1-methyl-3,4-dihydro-1H-2λ^6,1-benzothiazine-2,2-dione] | 49.4 | 591
7 | CN1c2ccc(OCCN3CCC4(CC3)C(=O)Nc3ccc(C#N)cc34)cc2CCS1(=O)=O [Compound 104, 1′-{2-[(1-methyl-2,2-dioxo-3,4-dihydro-1H-2λ^6,1-benzothiazin-6-yl)oxy]ethyl}-2-oxo-1,2-dihydrospiro[indole-3,4′-piperidine]-5-carbonitrile] | 139 | 408
8 | N#Cc1ccc2c(c1)C1(CCN(CCOc3ccc4c(c3)CCC(=O)N4CC(F)F)CC1)C(=O)N2 [Compound 105, 1′-(2-{[1-(2,2-difluoroethyl)-2-oxo-1,2,3,4-tetrahydroquinolin-6-yl]oxy}ethyl)-2-oxo-1,2-dihydrospiro[indole-3,4′-piperidine]-5-carbonitrile] | 40.7 | 392
9 | O=C1CCc2cc(OCCN3CCC4(CC3)C(=O)Nc3ccc(Cl)cc34)ccc2N1CC(F)F [Compound 106, 5-chloro-1′-(2-{[1-(2,2-difluoroethyl)-2-oxo-1,2,3,4-tetrahydroquinolin-6-yl]oxy}ethyl)-1,2-dihydrospiro[indole-3,4′-piperidin]-2-one] | 33.5 | 756
10 | CS(=O)(=O)c1ccc(OCCN2CCC3(CC2)C(=O)Nc2ccc(C#N)cc23)cc1C(F)(F)F [Compound 107, 1′-{2-[4-methanesulfonyl-3-(trifluoromethyl)phenoxy]ethyl}-2-oxo-1,2-dihydrospiro[indole-3,4′-piperidine]-5-carbonitrile] | 30.8 | 712
11 | CS(=O)(=O)c1ccc(OCCN2CCC3(CC2)C(=O)Nc2ccc(Cl)cc23)cc1C(F)(F)F [Compound 108, 5-chloro-1′-{2-[4-methanesulfonyl-3-(trifluoromethyl)phenoxy]ethyl}-1,2-dihydrospiro[indole-3,4′-piperidin]-2-one] | 16.9 | 860
12 | CS(=O)(=O)C1(c2ccc(OCCN3CCC4(CC3)C(=O)Nc3ccc(C#N)cc34)cc2)COC1 [Compound 109, 1′-{2-[4-(3-methanesulfonyloxetan-3-yl)phenoxy]ethyl}-2-oxo-1,2-dihydrospiro[indole-3,4′-piperidine]-5-carbonitrile] | 96.9 | 1190
13 | Cc1cc(OCCN2CCC3(CC2)C(=O)Nc2ccc(Cl)cc23)ccc1S(C)(=O)=O [Compound 110, 5-chloro-1′-[2-(4-methanesulfonyl-3-methylphenoxy)ethyl]-1,2-dihydrospiro[indole-3,4′-piperidin]-2-one] | 41.3 | 772
14 | Cc1cc(OCCN2CCC3(CC2)C(=O)Nc2ccc(C#N)cc23)ccc1S(C)(=O)=O [Compound 111, 1′-[2-(4-methanesulfonyl-3-methylphenoxy)ethyl]-2-oxo-1,2-dihydrospiro[indole-3,4′-piperidine]-5-carbonitrile] | 142 | 919
15 | O=C1Nc2ccc(Cl)cc2C12CCN(CCOc1ccc(S(=O)(=O)C(F)F)cc1)CC2 [Compound 112, 5-chloro-1′-[2-(4-difluoromethanesulfonylphenoxy)ethyl]-1,2-dihydrospiro[indole-3,4′-piperidin]-2-one] | 47.2 | 746
16 | N#Cc1ccc2c(c1)C1(CCN(CCOc3ccc(S(=O)(=O)C(F)F)cc3)CC1)C(=O)N2 [Compound 113, 1′-[2-(4-difluoromethanesulfonylphenoxy)ethyl]-2-oxo-1,2-dihydrospiro[indole-3,4′-piperidine]-5-carbonitrile] | 83.6 | 524
17 | O=C1CCc2cc(OCCN3CCC4(CC3)C(=O)Nc3ccc(Cl)cc34)ccc2N1[C@H]1C[C@@H](O)C1 [Compound 114, 5-chloro-1′-[2-({2-oxo-1-[(cis)-3-hydroxycyclobutyl]-1,2,3,4-tetrahydroquinolin-6-yl}oxy)ethyl]-1,2-dihydrospiro[indole-3,4′-piperidin]-2-one] | 46.5 | 529
18 | CN(c1c(F)cc(OCCN2CCC3(CC2)C(=O)Nc2ccc(Cl)cc23)cc1F)S(C)(=O)=O [Compound 127, N-[4-(2-{5-chloro-2-oxo-1,2-dihydrospiro[indole-3,4′-piperidin]-1′-yl}ethoxy)-2,6-difluorophenyl]-N-methylmethanesulfonamide] | 20.8 | 542
19 | CN(c1c(F)cc(OCCN2CCC3(CC2)C(=O)Nc2ccc(C#N)cc23)cc1F)S(C)(=O)=O [Compound 128, N-[4-(2-{5-cyano-2-oxo-1,2-dihydrospiro[indole-3,4′-piperidin]-1′-yl}ethoxy)-2,6-difluorophenyl]-N-methylmethanesulfonamide] | 42.7 | 537
20 | Cc1cc(OCCN2CCC3(CC2)C(=O)Nc2ccc(Cl)cc23)cc(C)c1S(C)(=O)=O [Compound 129, 5-chloro-1′-[2-(4-methanesulfonyl-3,5-dimethylphenoxy)ethyl]-1,2-dihydrospiro[indole-3,4′-piperidin]-2-one] | 24.6 | 352
21 | Cn1c(=O)oc2cc(OCCN3CCC4(CC3)C(=O)Nc3ccc(Cl)cc34)ccc21 [Compound 131, 5-chloro-1′-{2-[(3-methyl-2-oxo-2,3-dihydro-1,3-benzoxazol-6-yl)oxy]ethyl}-1,2-dihydrospiro[indole-3,4′-piperidin]-2-one] | 68 | 464
22 | Cn1c(=O)oc2cc(OCCN3CCC4(CC3)C(=O)Nc3ccc(C#N)cc34)ccc21 [Compound 132, 1′-{2-[(3-methyl-2-oxo-2,3-dihydro-1,3-benzoxazol-6-yl)oxy]ethyl}-2-oxo-1,2-dihydrospiro[indole-3,4′-piperidine]-5-carbonitrile] | 153 | 492
23 | CS(=O)(=O)C1(c2c(F)cc(OCCN3CCC4(CC3)C(=O)Nc3ccc(Cl)cc34)cc2F)COC1 [Compound 136, 5-chloro-1′-{2-[3,5-difluoro-4-(3-methanesulfonyloxetan-3-yl)phenoxy]ethyl}-1,2-dihydrospiro[indole-3,4′-piperidin]-2-one] | 22.4 | 800
24 | CC(c1c(F)cc(OCCN2CCC3(CC2)C(=O)Nc2ccc(C#N)cc23)cc1F)S(C)(=O)=O (centres unmarked) [Compound 137, 1′-{2-[3,5-difluoro-4-(1-methanesulfonylethyl)phenoxy]ethyl}-2-oxo-1,2-dihydrospiro[indole-3,4′-piperidine]-5-carbonitrile] | 114 | 597
25 | Cc1cc(OCCN2CCC3(CC2)C(=O)Nc2ccc(C#N)cc23)cnc1S(C)(=O)=O [Compound 140, 1′-{2-[(6-methanesulfonyl-5-methylpyridin-3-yl)oxy]ethyl}-2-oxo-1,2-dihydrospiro[indole-3,4′-piperidine]-5-carbonitrile] | 172 | 807
